# Test results published in patent publication US7364759B2, “Skin whitening compositions containing black cohosh extract” (Access Business Group International LLC, priority 2003, dated 2008).
# Test system: mouse derived immortalized melanocyte cells (M3)
# Experiment: Suppression of melanogenesis in vitro (modified Dooley assay)
# Format: cell-based
# Details: treatment dose 0.100%; treated days 1, 3, 5; melanin extracted day 6, OD 405 nm
smiles,measurement,value
O=C1O[C@H]([C@@H](O)CO)C(O)=C1O [Ascorbic Acid],% Control Melanin,51%
